We go through one compound from patent publication US20250281498A1, “FUSED AMINO PYRIMIDINE COMPOUNDS FOR TREATMENT OF SYNUCLEINOPATHIES AND TDP-43 PROTEINOPATHIES” (Ovid Therapeutics Inc., priority 2024, published 2025).

The target in the test is T1, NKCC1 (Homo sapiens, UniProt P55011).
T1 construct: expressed in transfected cells; host or cells: HEK-293
T1 sequence (P55011 1-1212): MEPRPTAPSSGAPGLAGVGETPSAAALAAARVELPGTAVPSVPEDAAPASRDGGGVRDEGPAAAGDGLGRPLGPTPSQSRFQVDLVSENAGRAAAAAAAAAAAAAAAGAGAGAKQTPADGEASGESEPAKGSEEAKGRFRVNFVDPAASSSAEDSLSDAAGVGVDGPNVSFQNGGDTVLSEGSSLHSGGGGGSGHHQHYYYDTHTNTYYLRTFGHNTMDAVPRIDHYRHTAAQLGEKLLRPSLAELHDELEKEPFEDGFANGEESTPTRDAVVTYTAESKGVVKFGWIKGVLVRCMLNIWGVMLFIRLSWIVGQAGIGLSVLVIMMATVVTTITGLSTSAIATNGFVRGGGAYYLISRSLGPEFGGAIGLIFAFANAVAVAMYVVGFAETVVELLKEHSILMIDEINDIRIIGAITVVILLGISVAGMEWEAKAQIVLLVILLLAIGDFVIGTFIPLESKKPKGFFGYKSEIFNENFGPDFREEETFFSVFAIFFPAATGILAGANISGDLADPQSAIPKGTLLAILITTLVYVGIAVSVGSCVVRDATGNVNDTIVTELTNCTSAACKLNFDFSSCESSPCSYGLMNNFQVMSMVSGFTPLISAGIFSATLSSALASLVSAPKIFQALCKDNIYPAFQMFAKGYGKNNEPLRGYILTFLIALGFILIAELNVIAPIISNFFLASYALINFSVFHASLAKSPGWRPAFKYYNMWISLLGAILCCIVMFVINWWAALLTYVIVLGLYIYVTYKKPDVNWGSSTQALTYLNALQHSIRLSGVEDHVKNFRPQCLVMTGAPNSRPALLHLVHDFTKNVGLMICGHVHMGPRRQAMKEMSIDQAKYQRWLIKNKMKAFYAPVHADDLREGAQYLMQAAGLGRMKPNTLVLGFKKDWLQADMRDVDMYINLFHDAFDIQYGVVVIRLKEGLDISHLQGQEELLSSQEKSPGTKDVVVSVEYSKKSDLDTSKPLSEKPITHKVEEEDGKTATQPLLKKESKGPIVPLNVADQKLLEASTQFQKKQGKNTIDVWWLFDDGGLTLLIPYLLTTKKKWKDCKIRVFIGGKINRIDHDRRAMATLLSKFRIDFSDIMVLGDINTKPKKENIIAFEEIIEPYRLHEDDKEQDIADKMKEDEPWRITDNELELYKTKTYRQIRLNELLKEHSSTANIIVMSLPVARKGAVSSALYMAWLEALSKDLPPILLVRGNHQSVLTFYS
The test can be described thus: TI+ flux assay, HEK-293 cells expressing NKCC1. Type of test: cell-based. To be noted: read-out: concentration at which effects on NKCC1 were seen (EC50 chart FIG. 1G). As to the method:
FLIPR TI Flux assay. HEK-293 cells were washed with HBSS, and then incubated with loading buffer containing TI sensitive fluorescent dye (https://www.moleculardevices.com), 20 μM bumetanide 20 μM ouabain and 2.5 mM probenecid for 1 h at room temperature (RT) under control conditions or with drugs in the dark using a FlexStation 3 microplate reader (Molecular Devices) and imaged […] for 30 min. Stimulus buffer was added containing 5 mM K^+/0.5 mM Tl^+ and cells were imaged every 1.5 over a 190 second time course The initial rate Tl^+ uptake (Relative Fluorescence Units (RFU) per second) was determined following addition of the stimulus buffer as outlined previously (Conway et al., 2017, supra) (Lee et al., 2022, supra).
Several studies have shown that the activity and plasma membrane accumulation of KCC2 is potentiated via phosphorylation of S940, a process mediated by the activity of protein kinase C and protein phosphatase 1 (Lee et al., 2011, supra; Lee et al., J Biol Chem 282, 29777-29784 (2007); Moore et al., Proc. Natl. Acad. Sci. U.S.A. 115, 10166-10171 (2018); Moore et al., Trends Neurosci. 40, 555-571 (2017); Silayeva et al., Proc. Natl. Acad. Sci. U.S.A. 112, 3523-3528 (2015)). […] Compared to KCC2, effects on KCC3, KCC4, and NKCC1 were only seen at concentrations more than 35-fold that of KCC2 (>100 μM) (FIG. 1G).

pEC50: −log10 of the molar value.

As for `C[C@@H]1CN(c2nc3c(c(Nc4ccc(C5CCCCC5)cc4)n2)COC3)CCO1` [Compound A, (R)—N-(4-cyclohexylphenyl)-2-(2-methylmorpholino)-5,7-dihydrofuro[3,4-d]pyrimidin-4-amine], the pEC50 is below 4.00.
